Experimental data reported in patent US20190010167A1, “INHIBITORS OF THE MENIN-MLL INTERACTION” (Vitae Pharmaceuticals, Inc., priority 2015, published 2019).

How the values were obtained:
[1] = target: T1, wild-type menin / MLL-AF9 fusion protein (Homo sapiens, UniProt O00255); assay: AlphaLISA menin/MLL binding assay, wild-type menin (Assay 1); details: biotinylated wild-type menin 5 nM, MLL-AF9-FLAG lysate
T1 construct: made in house; host or cells: E. coli (menin); HEK293 cleared lysate (MLL-AF9-FLAG)
T1 sequence (O00255 1-610): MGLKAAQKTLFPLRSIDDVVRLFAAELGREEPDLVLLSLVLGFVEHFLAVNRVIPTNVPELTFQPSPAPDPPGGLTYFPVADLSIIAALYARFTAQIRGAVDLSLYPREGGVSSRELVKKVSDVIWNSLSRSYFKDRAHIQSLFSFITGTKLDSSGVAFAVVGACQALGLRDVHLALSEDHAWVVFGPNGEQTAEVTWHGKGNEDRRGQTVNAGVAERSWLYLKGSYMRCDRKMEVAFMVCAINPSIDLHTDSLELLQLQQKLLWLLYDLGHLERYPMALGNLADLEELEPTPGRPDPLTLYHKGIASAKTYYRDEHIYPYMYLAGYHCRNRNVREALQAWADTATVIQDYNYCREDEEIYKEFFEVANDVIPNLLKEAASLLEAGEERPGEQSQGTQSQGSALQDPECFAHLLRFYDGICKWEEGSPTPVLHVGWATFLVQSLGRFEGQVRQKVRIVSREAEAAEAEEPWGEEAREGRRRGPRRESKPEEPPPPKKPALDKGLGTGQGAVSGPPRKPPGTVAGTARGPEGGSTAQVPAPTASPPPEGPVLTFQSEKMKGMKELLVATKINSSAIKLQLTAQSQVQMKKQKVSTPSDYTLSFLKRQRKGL
Procedure, shortened: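 Biotinylated wild-type or mutated menin (5 nM, E. coli-expressed) was preincubated 30 min at RT with compound and HEK293 lysate containing MLL1-1,396–AF9 1-92–FLAG. Buffer was 50 mM Tris-HCl pH 7.4, 5% DMSO, 50 mM NaCl, 0.01% BSA, 1 mM DTT. Anti-FLAG acceptor and streptavidin donor beads (10 μg/mL each) were then added for 60 min. IC50 came from a four-parameter fit of the Alpha signal inhibition.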

[2] = target: T2, menin/MLL (Gal4-Menin and MLL1-46-VP16) in HEK293 cells (Homo sapiens, UniProt O00255); assay: Mammalian cellular two-hybrid assay in HEK293 cells (Assay 2, cell assay); format: cell-based; details: Gal4-Menin/MLL1-46-VP16 two-hybrid, NanoLuc luciferase reporter, 16-18 h
T2 construct: expressed in transfected cells; host or cells: HEK293 (ATCC)
T2 sequence (P04386 1-147 partner limits assumed, species assumed, one chain of several): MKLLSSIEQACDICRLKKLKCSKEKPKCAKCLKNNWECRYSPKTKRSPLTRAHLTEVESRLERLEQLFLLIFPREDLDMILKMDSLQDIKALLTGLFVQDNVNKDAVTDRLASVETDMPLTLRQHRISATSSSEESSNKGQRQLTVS
Description: Potencies of inhibitor compounds against menin/MLL were tested in a mammalian cellular two-hybrid assay system. HEK293 cells (American Type Culture Collection (ATCC); Manassas, Va.) were co-transfected with three plasmids: one encoding Gal4-Menin (200 ng per 10^6 cells), another encoding MLL1-46-VP16 (100 ng per 10^6 cells), and a reporter plasmid pNL3.3-4×UAS (500 ng per 10^6 cells) encoding secreted NanoLuc® luciferase (Promega) with the upstream 4×UAS repeats for Gal4 binding. Transfection was performed in Opti-MEM® media using Lipofectamine® LTX with Plus™ Reagent (ThermoFisher Scientific) according to manufacturer's protocol. Cells were incubated with transfection reagents at 37° C. 5% CO2 for 5-6 h, harvested by trypsinization and centrifugation at 300×g for 5 min and resuspended in Gibco® DMEM media (phenol red-free, no antibiotics) containing 10% delipidated fetal bovine serum (FBS) (ThermoFisher Scientific). Concentration of cells in the media was adjusted to 3.5×10^5 cells/ml, and 100 μl of the cell suspension was dispensed into each well of 96-well Costar™ black clear bottom cell culture plates (Fisher Scientific). Tested compounds were added as 100 μL of 2× solutions in the media. Final concentration of DMSO was 0.1% in all wells. The cells were incubated with tested compounds at 37° C. 5% CO2 for 16-18 h. At the end of the incubation, 40 μL of the conditioned media from each well was transferred into each well of 96-well Costar™ black half-area plates (Fisher Scientific), to which 40 μl of 2× reconstituted NanoGlo® luciferase assay reagent (Promega) was added and thoroughly mixed on a microshaker for 2-3 min. Remaining media in the culture plates was removed by emptying the wells and blotting the plates on filter paper. The cells were lysed with 1× CellTiter-Glo® Luminescent Cell Viability Assay reagent (Promega) for assessing toxicity of the tested compounds. Both, Nano-Glo® and CellTiter-Glo® luminescence intensities were measured on EnVision® multilabel plate reader (PerkinElmer). Percent inhibition values were calculated based on Nano-Glo® luciferase activity observed with the tested compounds vs. DMSO control and commercially available menin inhibitor MI-2-2 (4-(4-(5,5-Dimethyl-4,5-dihydrothiazol-2-yl)piperazin-1-yl)-6-(2,2,2-trifluoroethyl)thieno[2,3-d]pyrimidine) (EMD Millipore, Cat. No. 444825) incubated with cells at 5 μM. These percent inhibition values were regressed against compound concentrations in the assay using non-linear 4-parameter logit curve fitting (XLFit, IDBS). Half maximal inhibitory concentrations (IC50) were calculated as the parameters of the fit corresponding to the inflection points on semi-logarithmic dose-response curves.

Row | Compound | IC50 [1] | IC50 [2]
1 | COC(=O)N[C@H]1CC[C@H](CN2CCC3(CCN(c4ncnc5sc(CC(F)(F)F)cc45)C3)C2)CC1 (stereo partly shown) [Example 46, Methyl ((1r,4r)-4-((7-(6-(2,2,2-trifluoroethyl)thieno[2,3-d]pyrimidin-4-yl)-2,7-diazaspiro[4.4]nonan-2-yl)methyl)cyclohexyl)carbamate] | < 0.1 µM | 0.1 to 1 µM
2 | CS(=O)(=O)N[C@H]1CC[C@H](CN2CCC3(CCN(c4ncnc5sc(CC(F)(F)F)cc45)C3)C2)CC1 (stereo partly shown) [Example 48, N-((1r,4r)-4-((7-(6-(2,2,2-trifluoroethyl)thieno[2,3-d]pyrimidin-4-yl)-2,7-diazaspiro[4.4]nonan-2-yl)methyl)cyclohexyl)methanesulfonamide] | < 0.1 µM | 0.1 to 1 µM
3 | CS(=O)(=O)N[C@H]1CC[C@@H](CN2CCC3(CCN(c4ncnc5sc(CC(F)(F)F)cc45)C3)C2)CC1 (stereo partly shown) [Example 49, N-((1s,4s)-4-((7-(6-(2,2,2-trifluoroethyl)thieno[2,3-d]pyrimidin-4-yl)-2,7-diazaspiro[4.4]nonan-2-yl)methyl)cyclohexyl)methanesulfonamide] | < 0.1 µM | 0.1 to 1 µM
4 | CC(=O)Nc1cccc(CN2CCC3(CCN(c4ncnc5sc(CC(F)(F)F)cc45)C3)C2)c1 (stereo not shown) [Example 52, N-(3-((7-(6-(2,2,2-trifluoroethyl)thieno[2,3-d]pyrimidin-4-yl)-2,7-diazaspiro[4.4]nonan-2-yl)methyl)phenyl)acetamide] | < 0.1 µM | 0.1 to 1 µM
5 | Cc1cc(NS(C)(=O)=O)ccc1CN1CCC2(CCN(c3ncnc4sc(CC(F)(F)F)cc34)C2)C1 (stereo not shown) [Example 54, N-(3-methyl-4-((7-(6-(2,2,2-trifluoroethyl)thieno[2,3-d]pyrimidin-4-yl)-2,7-diazaspiro[4.4]nonan-2-yl)methyl)phenyl)methanesulfonamide] | < 0.1 µM | 0.1 to 1 µM
6 | CC(C)(N)C(=O)N1CCC2(CCN(c3ncnc4sc(CC(F)(F)F)cc34)C2)C1 (stereo not shown) [Example 58, 2-Amino-2-methyl-1-(7-(6-(2,2,2-trifluoroethyl)thieno[2,3-d]pyrimidin-4-yl)-2,7-diazaspiro[4.4]nonan-2-yl)propan-1-one] | 0.1 to 1 µM | 0.1 to 1 µM
7 | CS(=O)(=O)Cc1ccc(CC(=O)N2CC3(C2)CN(c2ncnc4sc(CC(F)(F)F)cc24)C3)cc1 [Example 61, 2-(4-((methylsulfonyl)methyl)phenyl)-1-(6-(6-(2,2,2-trifluoroethyl)thieno[2,3-d]pyrimidin-4-yl)-2,6-diazaspiro[3.3]heptan-2-yl)ethan-1-one] | 0.1 to 1 µM | ≥ 1 µM
8 | FC(F)(F)Cc1cc2c(N3CC4(CN(CC5CCCC(F)(F)C5)C4)C3)ncnc2s1 (stereo not shown) [Example 63, 4-(6-((3,3-difluorocyclohexyl)methyl)-2,6-diazaspiro[3.3]heptan-2-yl)-6-(2,2,2-trifluoroethyl)thieno[2,3-d]pyrimidine] | < 0.1 µM | 0.1 to 1 µM
9 | CC1(C)CCCC(CN2CC3(C2)CN(c2ncnc4sc(CC(F)(F)F)cc24)C3)C1 (stereo not shown) [Example 65, 4-(6-((3,3-dimethylcyclohexyl)methyl)-2,6-diazaspiro[3.3]heptan-2-yl)-6-(2,2,2-trifluoroethyl)thieno[2,3-d]pyrimidine] | < 0.1 µM | 0.1 to 1 µM
10 | FC(F)(F)Cc1cc2c(N3CC4(CN(CC5CCOCC5)C4)C3)ncnc2s1 [Example 66, 4-(6-((tetrahydro-2H-pyran-4-yl)methyl)-2,6-diazaspiro[3.3]heptan-2-yl)-6-(2,2,2-trifluoroethyl)thieno[2,3-d]pyrimidine] | 0.1 to 1 µM | 0.1 to 1 µM
11 | FC(F)(F)Cc1cc2c(N3CC4(CN(CC5CCCC5)C4)C3)ncnc2s1 [Example 68, 4-(6-(cyclopentylmethyl)-2,6-diazaspiro[3.3]heptan-2-yl)-6-(2,2,2-trifluoroethyl)thieno[2,3-d]pyrimidine] | < 0.1 µM | 0.1 to 1 µM
